Results on 13 molecules are retold here after patent US11752165B2, “Basic chemotherapeutic intratumour injection formulation” (US NANO FOOD & DRUG, INC., priority 2020, dated 2023).

For data set [1] the following is noted: background statement, cited from earlier work.
Data set [2] is described as follows: Stability of the basic (free base) chemical. Particulars: detailed description.
For data set [3] the following is noted: cited from earlier work; for Solubility in water (in words): background statement.
Data set [4] is described as follows: Solubility in oil, ethanol and other organic liquids. The note with it: for Solubility in organic liquids (in words): detailed description; for Solubility in ethanol / Solubility in oil: Table 2, yes/no.
Data set [5] in a line: Solubility in water. The note with it: for Solubility in water (in words): detailed description; for Solubility in H2O: Table 2, yes/no.
The conditions of data set [6]: background statement; cited from earlier work.
The conditions of data set [7]: 5 mg/mL aqueous solution; cited from earlier work.
The format of data set [8] is physicochemical.
For data set [9] the following is noted: cited from earlier work.
The test system of data set [10] is mice. Particulars: mouse, in vivo, ip; cited from earlier work.
Where [11] appears, read: serum, rapid intravenous injection, patients with cancer.

Values after ≈ are worked out from the molar mass of the structure shown. “Also recorded” adds a separate entry of the source. Counter-ions that a name gives are not always drawn. Like-named read-outs stand apart in the source and are kept apart here.

Consider `COc1cccc2c1C(=O)c1c(O)c3c(c(O)c1C2=O)C[C@@](O)(C(C)=O)C[C@@H]3O[C@H]1C[C@H](N)[C@H](O)[C@H](C)O1` [Daunorubicin base, daunorubicin], for which the “Solubility in organic liquids (in words)” value in [1] was “slightly soluble in an organic liquid”; in data set [4], “slightly soluble in an organic liquid such as oleic acid, PEG and ethanol”. The “Stability of the base form (in words)” value in data set [2] was “not stable in base form”. The “Solubility in water (in words)” value in [3] and in data set [5] was “insoluble in water” each time. In addition, the “Stability of the basic chemical (in words)” value in [6] is “unstable”.
Consider `COc1cccc2c1C(=O)c1c(O)c3c(c(O)c1C2=O)C[C@@](O)(C(C)=O)C[C@@H]3O[C@H]1C[C@H](N)[C@H](O)[C@H](C)O1` [Daunorubicin hydrochloride], for which the “Solubility in water (in words)” value in data set [3] (hydrochloride) is “soluble in water”.
As to `COc1cccc2c1C(=O)c1c(O)c3c(c(O)c1C2=O)C[C@@](O)(C(=O)CO)C[C@@H]3O[C@H]1C[C@H](N)[C@H](O)[C@H](C)O1` [Doxorubicin Hydrochloride], the “pH of aqueous solution” value in data set [7] is listed as 4.0-5.5. Moreover, the “Solubility in water (in words)” value in data set [3] (hydrochloride) is “soluble in water”.
On to `COc1cccc2c1C(=O)c1c(O)c3c(c(O)c1C2=O)C[C@@](O)(C(=O)CO)C[C@@H]3O[C@H]1C[C@H](N)[C@H](O)[C@H](C)O1` [Doxorubicin base, doxorubicin], for which the results for the “Solubility in organic liquids (in words)” value in [1] and in data set [4] were “slightly soluble in an organic liquid” and “slightly soluble alcohols; also recorded: moderately soluble in anhydrous methanol”, respectively. In addition, the “Solubility in water (in words)” value in data set [3] is on record as “insoluble in water”. The molecule further returned a pH in water in [8] (10 mg in 5 ml of water) of 7.9. In addition, the “Stability of the basic chemical (in words)” value in data set [6] is given as “unstable”.
Consider `COc1cccc2c1C(=O)c1c(O)c3c(c(O)c1C2=O)C[C@@](O)(C(=O)CO)C[C@@H]3O[C@H]1C[C@H](N)[C@@H](O)[C@H](C)O1` [Epirubicin hydrochloride], for which the “Solubility in water (in words)” value in data set [3] (hydrochloride) is recorded as “soluble in water”.
Consider `O=C1c2c(O)ccc(O)c2C(=O)c2c(NCCNCCO)ccc(NCCNCCO)c21` [Mitoxantrone base, mitoxantrone], for which the “Solubility in organic liquids (in words)” value in data set [1] is “slightly soluble in an organic liquid”; in [4], “slightly soluble in methanol; also recorded: practically insoluble in acetonitrile chloroform and acetone”. Besides, the “Stability of the base form (in words)” value in [2] was “the basic form is stable”. Besides, the figures for the “Solubility in water (in words)” value in data set [3] and in data set [5] were “insoluble in water” and “sparingly soluble in water”, respectively. In data set [8] (25 mg in 10 ml water), this molecule returned a pH in water of 9.42.
Consider `CC[C@]1(O)C[C@@H]2CN(CCc3c([nH]c4ccccc34)[C@@](C(=O)OC)(c3cc4c(cc3OC)N(C)[C@H]3[C@@](O)(C(=O)OC)[C@H](OC(C)=O)[C@]5(CC)C=CCN6CC[C@]43[C@@H]65)C2)C1` [Vinblastine sulphate], for which, in data set [9] (following IV administration), the “Crossing of the blood brain barrier (in words)” value was “crosses the blood brain barrier poorly”. The “Solubility in water (in words)” value in data set [3] was “One part is soluble in 10 parts of water”. In addition, in data set [4] (listed as Vinblastine H2SO4), the Solubility in ethanol result is “no” and the Solubility in oil result is given as “no”. The “Solubility in H2O” value in [5] (listed as Vinblastine H2SO4) was “yes”. In addition, in data set [5] (listed as Vinblastine sulfate), the “Solubility in water (in words)” value is on record as “soluble in water”.
As to `CC[C@]1(O)C[C@@H]2CN(CCc3c([nH]c4ccccc34)[C@@](C(=O)OC)(c3cc4c(cc3OC)N(C)[C@H]3[C@@](O)(C(=O)OC)[C@H](OC(C)=O)[C@]5(CC)C=CCN6CC[C@]43[C@@H]65)C2)C1` [Vinblastine], in data set [1] (listed as vinblastine), the “Solubility in organic liquids (in words)” value is “slightly soluble in an organic liquid”. Moreover, in data set [9] (setting [11]), the Initial half-life is 3.7 min, the Middle half-life is 1.6 h and the Terminal half-life was 24.8 h. Besides, the “Stability of the base form (in words)” value in [2] is “unstable at room temperature”. In addition, the “Solubility in water (in words)” value in [3] (listed as vinblastine) is given as “insoluble in water”. Further, in [4], the Solubility in ethanol result is reported as “yes”; the Solubility in oil result is “yes”; the “Solubility in organic liquids (in words)” value is given as “soluble in alcohol, acetone, chloroform, ethyl acetate”. Besides, in [5], the “Solubility in H2O” value is on record as “no” and the “Solubility in water (in words)” value is “practically insoluble in water”. Also, the “Solubility in water (in words)” value in data set [5] (listed as vinblastine base) is “not soluble in water”.
`CC[C@]1(O)C[C@H]2CN(CCc3c([nH]c4ccccc34)[C@@](C(=O)OC)(c3cc4c(cc3OC)N(C=O)[C@H]3[C@@](O)(C(=O)OC)[C@H](OC(C)=O)[C@]5(CC)C=CCN6CC[C@]43[C@@H]65)C2)C1` [Vincristine sulfate]: the “Solubility in water (in words)” value in data set [3] was “freely soluble in water”. Also, in [4] (listed as Vincristine H2SO4), the Solubility in ethanol result is reported as “no” and the Solubility in oil entry is on record as “no”. Also, the “Solubility in H2O” value in data set [5] (listed as Vincristine H2SO4) is recorded as “yes”.
On to `CC[C@]1(O)C[C@H]2CN(CCc3c([nH]c4ccccc34)[C@@](C(=O)OC)(c3cc4c(cc3OC)N(C=O)[C@H]3[C@@](O)(C(=O)OC)[C@H](OC(C)=O)[C@]5(CC)C=CCN6CC[C@]43[C@@H]65)C2)C1` [Vincristine], for which the 50% lethal dose (LD50) in data set [10] was 5.2 mg/kg. The “Solubility in organic liquids (in words)” value in data set [1] is “soluble in alcohol, acetone, and chloroform”; in data set [1] (listed as vincristine) it was “slightly soluble in an organic liquid”. In addition, the Solubility in water in data set [3] (25° C.) is 2.27 µg/mL (≈ 2.75 µM). Moreover, the “Solubility in water (in words)” value in data set [3] is “practically insoluble in water”; in data set [3] (listed as vincristine), “insoluble in water”; in data set [5], “not soluble in water”. The Solubility in ethanol result in data set [4] is reported as “yes”. Moreover, the Solubility in oil result in data set [4] is given as “yes”. Also, the “Solubility in H2O” value in [5] is “no”. Further, the “Stability of the basic chemical (in words)” value in data set [6] is given as “unstable”.
For `CC[C@]1(O)C[C@@H]2CN(CCc3c([nH]c4ccccc34)[C@@](C(=O)OC)(c3cc4c(cc3OC)N(C)[C@H]3[C@@](O)(C(N)=O)[C@H](O)[C@]5(CC)C=CCN6CC[C@]43[C@@H]65)C2)C1` [Vindesine], the “Solubility in organic liquids (in words)” value in data set [1] is listed as “slightly soluble in an organic liquid”. Further, in data set [2], the “Stability of the base form (in words)” value is recorded as “not stable”. Moreover, in [3], the “Solubility in water (in words)” value is listed as “insoluble in water”. In addition, in data set [4], the Solubility in ethanol result was “yes”; the Solubility in oil entry was “yes”; the “Solubility in organic liquids (in words)” value is recorded as “soluble in alcohol, acetone”. Also, in data set [5], the “Solubility in H2O” value is “no” and the “Solubility in water (in words)” value is on record as “practically insoluble in water”. Also, the “Stability of the basic chemical (in words)” value in [6] is “unstable”.
In the case of `COc1cccc2c1C(=O)c1c(O)c3c(c(O)c1C2=O)C[C@@](O)(C(=O)CO)C[C@@H]3O[C@H]1C[C@H](N)[C@@H](O)[C@H](C)O1` [epirubicin base, epirubicin], the “Solubility in organic liquids (in words)” value in [1] is “slightly soluble in an organic liquid”. Moreover, the “Solubility in water (in words)” value in data set [3] was “insoluble in water”. In data set [5], the Solubility in water is 0.093 mg per ml and the “Solubility in water (in words)” value is reported as “insoluble in water”. Also, the “Stability of the basic chemical (in words)” value in data set [6] is given as “unstable”.
As to `C=C1C[C@@H]2CC[C@@]34C[C@H]5O[C@H]6[C@@H](O3)[C@H]3O[C@H](CC[C@@H]3O[C@H]6[C@H]5O4)CC(=O)C[C@@H]3[C@@H](OC)[C@@H](C[C@H](O)CN)O[C@H]3C[C@H]3O[C@@H](CC[C@@H]1O2)C[C@@H](C)C3=C` [eribulin], the “Solubility in organic liquids (in words)” value in data set [1] was “slightly soluble in an organic liquid”. In addition, the “Solubility in water (in words)” value in [3] is “insoluble in water”. For the same molecule, in [6], the “Stability of the basic chemical (in words)” value is “unstable”.
